Results reported in patent publication US4416884A, “Piperazinylbenzoheterocyclic compounds” (Otsuka Pharmaceutical Co., Ltd., priority 1978, dated 1983).
In brackets after ≈: the same amount, converted by molar mass. Like-named read-outs stand apart in the source and are kept apart here.

Experiments:
Type in all cases: cell-based
[1] = test system: Test Organism 1 (Escherichia Coli NIHJ); assay: influence of the addition of horse serum on the MIC
[2] = test system: Bacillus subtilis PCI 219; assay: antimicrobial activity, serial dilution method on agar plate
Procedure, shortened: (§1)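 Serial dilution on Heart Infusion agar; inoculum 1×10^8 cells/ml (O.D. 660 mμ 0.07–0.16) or 1×10^6 cells/ml diluted from it; MIC in mcg/ml.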

Proteus rettgeri NIH 96 = assay: as above; details: Providencia rettgeri
Procedure, shortened: as §1

[3] = test system: Streptococcus pneumoniae Type I; assay: as above
Procedure, shortened: as §1

[4] = test system: Salmonella typhi 0-901 (NCTC 8393); assay: as above; details: Salmonella enterica, read-out: Minimum Inhibitory Concentration
Procedure, shortened: as §1

[5] = test system: Serattia marcescens IFO 12648; assay: as above
Procedure, shortened: as §1

[6] = test system: Streptococcus pyogenes IID Cook; assay: as above
Procedure, shortened: as §1

[7] = test system: Enterobacter aerogenes IFO 12979; assay: as above; details: Klebsiella aerogenes
Procedure, shortened: as §1

Klebsiella pneumoniae = assay: as above
Procedure, shortened: as §1

[8] = test system: Staphylococcus aureus FDA 209 P; assay: as above
Procedure, shortened: as §1

[9] = test system: Escherichia Coli NIHJ JC-2 (IFO 12734); assay: as above; details: Escherichia coli, read-out: Minimum Inhibitory Concentration
Procedure, shortened: as §1

[10] = test system: Streptococcus pneumoniae Type III; assay: as above
Procedure, shortened: as §1

[11] = test system: Pseudomonas putida IFO 13696; assay: as above
Procedure, shortened: as §1

[12] = test system: Proteus vulgaris IID OX-19; assay: as above; details: read-out: Minimum Inhibitory Concentration
Procedure, shortened: as §1

Shigella Sonnei EW 33 = assay: as above; details: read-out: Minimum Inhibitory Concentration
Procedure, shortened: as §1

[13] = test system: Klebsiella pneumoniae ST-101; assay: as above
Procedure, shortened: as §1

[14] = test system: Pseudomonas aeruginosa NCTC 10490; assay: as above
Procedure, shortened: as §1

[15] = test system: Pseudomonas aeruginosa E-2; assay: as above
Procedure, shortened: as §1

[16] = test system: Corinebacterium diphteriae; assay: as above
Procedure, shortened: as §1

Enterobacter cloacae = assay: as above
Procedure, shortened: as §1

[17] = test system: Yersinia enterocolitica 0-5; assay: as above
[18] = read-out: Minimum Inhibitory Concentration, inoculum 1 × 10^6 cells/ml
[19] = read-out: Minimum Inhibitory Concentration, inoculum 1 × 10^8 cells/ml

CC1Cc2c(N3CCNCC3)ccc3c(=O)c(C(=O)O)cn1c23 (centres unmarked) [C]
MIC ([1]; read-out: Minimum Inhibitory Concentration, horse serum 0%, inoculum 10^6): 12.5 µg/mL (≈ 39.9 µM) | MIC ([1]; read-out: Minimum Inhibitory Concentration, horse serum 0%, inoculum 10^8): 12.5 µg/mL (≈ 39.9 µM) | MIC ([1]; read-out: Minimum Inhibitory Concentration, horse serum 10%, inoculum 10^6): 6.3 µg/mL (≈ 20.1 µM) | MIC ([1]; read-out: Minimum Inhibitory Concentration, horse serum 10%, inoculum 10^8): 12.5 µg/mL (≈ 39.9 µM) | MIC ([1]; read-out: Minimum Inhibitory Concentration, horse serum 20%, inoculum 10^6): 6.3 µg/mL (≈ 20.1 µM) | MIC ([1]; read-out: Minimum Inhibitory Concentration, horse serum 20%, inoculum 10^8): 12.5 µg/mL (≈ 39.9 µM) | MIC ([1]; read-out: Minimum Inhibitory Concentration, horse serum 40%, inoculum 10^6): 6.3 µg/mL (≈ 20.1 µM) | MIC ([1]; read-out: Minimum Inhibitory Concentration, horse serum 40%, inoculum 10^8): 12.5 µg/mL (≈ 39.9 µM) | MIC ([2]; PCI219, read-out: Minimum Inhibitory Concentration, inoculum 1 × 10^6 cells/ml): 3.1 µg/mL (≈ 9.89 µM) | MIC ([2]; PCI219, read-out: Minimum Inhibitory Concentration, inoculum 1 × 10^8 cells/ml): 3.1 µg/mL (≈ 9.89 µM) | MIC (Proteus rettgeri NIH 96; NIH96, read-out: Minimum Inhibitory Concentration, inoculum 1 × 10^6 cells/ml): 0.8 µg/mL (≈ 2.55 µM) | MIC (Proteus rettgeri NIH 96; NIH96, read-out: Minimum Inhibitory Concentration, inoculum 1 × 10^8 cells/ml): 0.8 µg/mL (≈ 2.55 µM) | MIC [3, 18]: 50 µg/mL (≈ 160 µM) | MIC [3, 19]: 100 µg/mL (≈ 319 µM) | MIC ([4]; inoculum 1 × 10^6 cells/ml): 0.2 µg/mL (≈ 0.638 µM) | MIC ([4]; inoculum 1 × 10^8 cells/ml): 0.4 µg/mL (≈ 1.28 µM) | MIC [5, 18]: 1.6 µg/mL (≈ 5.11 µM) | MIC [5, 19]: 3.1 µg/mL (≈ 9.89 µM) | MIC [6, 18]: 25 µg/mL (≈ 79.8 µM) | MIC [6, 19]: 50 µg/mL (≈ 160 µM) | MIC ([7]; IFO12979, read-out: Minimum Inhibitory Concentration, inoculum 1 × 10^6 cells/ml): 0.4 µg/mL (≈ 1.28 µM) | MIC ([7]; IFO12979, read-out: Minimum Inhibitory Concentration, inoculum 1 × 10^8 cells/ml): 0.8 µg/mL (≈ 2.55 µM) | MIC (Klebsiella pneumoniae; [18]): 0.8 µg/mL (≈ 2.55 µM) | MIC (Klebsiella pneumoniae; [19]): 0.8 µg/mL (≈ 2.55 µM) | MIC ([8]; FDA209, read-out: Minimum Inhibitory Concentration, inoculum 1 × 10^6 cells/ml): 25 µg/mL (≈ 79.8 µM) | MIC ([8]; FDA209, read-out: Minimum Inhibitory Concentration, inoculum 1 × 10^8 cells/ml): 25 µg/mL (≈ 79.8 µM) | MIC [9]: 1.6 µg/mL (≈ 5.11 µM) | MIC [10, 18]: 50 µg/mL (≈ 160 µM) | MIC [10, 19]: 100 µg/mL (≈ 319 µM) | MIC ([11]; IFO13696, read-out: Minimum Inhibitory Concentration, inoculum 1 × 10^6 cells/ml): 3.1 µg/mL (≈ 9.89 µM) | MIC ([11]; IFO13696, read-out: Minimum Inhibitory Concentration, inoculum 1 × 10^8 cells/ml): 3.1 µg/mL (≈ 9.89 µM) | MIC ([12]; IIDOX19, inoculum 1 × 10^6 cells/ml): 0.8 µg/mL (≈ 2.55 µM) | MIC ([12]; IIDOX19, inoculum 1 × 10^8 cells/ml): 3.1 µg/mL (≈ 9.89 µM) | MIC (Shigella Sonnei EW 33; inoculum 1 × 10^6 cells/ml): 1.6 µg/mL (≈ 5.11 µM) | MIC (Shigella Sonnei EW 33; inoculum 1 × 10^8 cells/ml): 1.6 µg/mL (≈ 5.11 µM) | MIC ([13]; ST101, read-out: Minimum Inhibitory Concentration, inoculum 1 × 10^6 cells/ml): 0.2 µg/mL (≈ 0.638 µM) | MIC ([13]; ST101, read-out: Minimum Inhibitory Concentration, inoculum 1 × 10^8 cells/ml): 0.8 µg/mL (≈ 2.55 µM) | MIC ([14]; NCTC10490, read-out: Minimum Inhibitory Concentration, inoculum 1 × 10^6 cells/ml): 3.1 µg/mL (≈ 9.89 µM) | MIC ([14]; NCTC10490, read-out: Minimum Inhibitory Concentration, inoculum 1 × 10^8 cells/ml): 6.3 µg/mL (≈ 20.1 µM) | MIC ([15]; E2, read-out: Minimum Inhibitory Concentration, inoculum 1 × 10^6 cells/ml): 3.1 µg/mL (≈ 9.89 µM) | MIC ([15]; E2, read-out: Minimum Inhibitory Concentration, inoculum 1 × 10^8 cells/ml): 6.3 µg/mL (≈ 20.1 µM) | MIC [16, 18]: 6.3 µg/mL (≈ 20.1 µM) | MIC [16, 19]: 25 µg/mL (≈ 79.8 µM) | MIC (Enterobacter cloacae; [18]): 0.4 µg/mL (≈ 1.28 µM) | MIC (Enterobacter cloacae; [19]): 0.8 µg/mL (≈ 2.55 µM) | MIC ([17]; Yersinia enterocolitica, 05, read-out: Minimum Inhibitory Concentration, inoculum 1 × 10^6 cells/ml): 1.6 µg/mL (≈ 5.11 µM) | MIC ([17]; Yersinia enterocolitica, 05, read-out: Minimum Inhibitory Concentration, inoculum 1 × 10^8 cells/ml): 1.6 µg/mL (≈ 5.11 µM)
